How the values were obtained:
[1] = biological target: T1, human alpha 7-wt nAChR (Homo sapiens, UniProt P36544); experiment: Ca2+ flux imaging (FDSS) (Protocol B); type: cell-based; conditions: for EC50: potentiation of 100 μM choline, compounds 0.01 μM to 30 μM, read-out: a7-PAM-G_[33]_pEC50 pEC50 (converted); for Emax: read-out: a7-PAM-G_[33]_Eff_Curve_FI % Efficacy
T1 construct: expressed in transfected cells
How it was run: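 Fluo-4AM-loaded cells expressing human α7-wt nAChR, in HBSS with 10 mM HEPES, 5 mM CaCl2, 0.1% BSA, received compound (0.01–30 μM), typically 10 min before 100 μM choline, with calcium flux read in real time. Potentiation is relative to choline alone (100%); EC50 from sigmoidal curves.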

[2] = efficacy of 100 μM choline defined as 100% in the absence of a PAM

T1 sequence (P36544 23-502): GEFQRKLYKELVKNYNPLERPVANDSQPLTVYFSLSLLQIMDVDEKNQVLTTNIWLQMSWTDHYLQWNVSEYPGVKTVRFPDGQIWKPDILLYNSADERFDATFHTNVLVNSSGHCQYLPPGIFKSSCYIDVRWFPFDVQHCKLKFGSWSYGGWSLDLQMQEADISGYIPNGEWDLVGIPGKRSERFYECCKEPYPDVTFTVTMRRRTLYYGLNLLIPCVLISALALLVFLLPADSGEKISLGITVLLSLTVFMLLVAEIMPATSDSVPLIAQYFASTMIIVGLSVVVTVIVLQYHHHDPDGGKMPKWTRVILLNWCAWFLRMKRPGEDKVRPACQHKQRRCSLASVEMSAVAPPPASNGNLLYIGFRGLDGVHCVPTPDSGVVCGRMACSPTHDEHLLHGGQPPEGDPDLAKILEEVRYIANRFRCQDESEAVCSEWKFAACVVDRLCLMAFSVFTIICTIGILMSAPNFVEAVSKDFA

Row | Compound | EC50 [1] | melting point | Emax [1, 2] | a7-PAM-G_[33]_Eff_Curve_FI % Efficacy [1, 2]
1 | Cc1cc(-c2sc(N3CC(C)OC(C)C3)nc2CNC(=O)c2ccc(Cl)cc2)cc(C)n1 (racemic) [Compound 58, 4-chloro-N-[[2-[2,6-dimethyl-4-morpholinyl]-5-(2,6-dimethyl-4-pyridinyl)-4-thiazolyl]methyl]-benzamide] | 0.295 µM | 184 °C |  | 
2 | Cc1cc(-c2sc(N3CC(C)OC(C)C3)nc2CNC(=O)c2cc(C)on2)cc(C)n1 (racemic) [Compound 59, N-[[2-[2,6-dimethyl-4-morpholinyl]-5-(2,6-dimethyl-4-pyridinyl)-4-thiazolyl]methyl]-5-methyl-3-isoxazolecarboxamide] | 1.62 µM | 166 °C | 938% | 
3 | Cc1cc(-c2sc(N3CCOC(C)C3)nc2CNC(=O)c2ccc(F)cc2C)cc(C)n1 (single isomer, unassigned) [Compound 70, N-[[5-(2,6-dimethyl-4-pyridinyl)-2-[(2S*)-2-methyl-4-morpholinyl]-4-thiazolyl]methyl]-4-fluoro-2-methyl-benzamide] | 0.0813 µM | 185 °C |  | 
4 | Cc1cc(-c2sc(N3C[C@@H](C)O[C@@H](C)C3)nc2CNC(=O)c2ccc(Cl)c(Cl)c2)cc(C)n1 [Compound 35, 3,4-dichloro-N-[[2-[(2R,6S)-2,6-dimethyl-4-morpholinyl]-5-(2,6-dimethyl-4-pyridinyl)-4-thiazolyl]methyl]-benzamide] | 0.132 µM | 185 °C | 599% | 
5 | Cc1cc(-c2sc(N3C[C@@H](C)O[C@@H](C)C3)nc2CNC(=O)c2ccc(F)c(F)c2)cc(C)n1 [Compound 36, N-[[2-[(2R,6S)-2,6-dimethyl-4-morpholinyl]-5-(2,6-dimethyl-4-pyridinyl)-4-thiazolyl]methyl]-3,4-difluoro-benzamide] | 0.0741 µM | 189 °C | 869% | 
6 | COCC(=O)NCc1nc(N2C[C@@H](C)O[C@@H](C)C2)sc1-c1cc(C)nc(C)c1 [Compound 37, N-[[2-[(2R,6S)-2,6-dimethyl-4-morpholinyl]-5-(2,6-dimethyl-4-pyridinyl)-4-thiazolyl]methyl]-2-methoxy-acetamide] |  | 150 °C | 293% | 
7 | Cc1cc(-c2sc(N3C[C@@H](C)O[C@@H](C)C3)nc2CNC(=O)c2ccc(F)c(F)c2C)cc(C)n1 [Compound 38, N-[[2-[(2R,6S)-2,6-dimethyl-4-morpholinyl]-5-(2,6-dimethyl-4-pyridinyl)-4-thiazolyl]methyl]-3,4-difluoro-2-methyl-benzamide] | 0.0055 µM | 187 °C |  | 
8 | CCCC(=O)NCc1nc(N2C[C@@H](C)O[C@@H](C)C2)sc1-c1cc(C)nc(C)c1 [Compound 41, N-[[2-[(2R,6S)-2,6-dimethyl-4-morpholinyl]-5-(2,6-dimethyl-4-pyridinyl)-4-thiazolyl]methyl]-butanamide] | 0.102 µM | 155 °C | 657% | 
9 | Cc1cc(-c2sc(N3C[C@@H](C)O[C@@H](C)C3)nc2CNC(=O)CC(C)C)cc(C)n1 [Compound 42, N-[[2-[(2R,6S)-2,6-dimethyl-4-morpholinyl]-5-(2,6-dimethyl-4-pyridinyl)-4-thiazolyl]methyl]-3-methyl-butanamide] | 0.0105 µM | 184 °C | 827% | 
10 | Cc1cc(-c2sc(N3C[C@@H](C)O[C@@H](C)C3)nc2CNC(=O)C2C(C)(C)C2(C)C)cc(C)n1 [Compound 43, N-[[2-[(2R,6S)-2,6-dimethyl-4-morpholinyl]-5-(2,6-dimethyl-4-pyridinyl)-4-thiazolyl]methyl]-2,2,3,3-tetramethyl-cyclopropanecarboxamide] | 0.0603 µM | 197 °C | 663% | 
11 | Cc1cc(-c2sc(N3C[C@@H](C)O[C@@H](C)C3)nc2CNC(=O)c2cccc(C(F)(F)F)c2)cc(C)n1 [Compound 44, N-[[2-[(2R,6S)-2,6-dimethyl-4-morpholinyl]-5-(2,6-dimethyl-4-pyridinyl)-4-thiazolyl]methyl]-3-(trifluoromethyl)-benzamide] | 0.282 µM | 180 °C | 607% | 
12 | Cc1cc(-c2sc(N3C[C@@H](C)O[C@@H](C)C3)nc2CNC(=O)c2ccc3c(c2)OC(F)(F)O3)cc(C)n1 [Compound 45, N-[[2-[(2R,6S)-2,6-dimethyl-4-morpholinyl]-5-(2,6-dimethyl-4-pyridinyl)-4-thiazolyl]methyl]-2,2-difluoro-1,3-benzodioxole-5-carboxamide] | 0.355 µM | 175 °C | 566% | 
13 | Cc1cc(-c2sc(N3C[C@@H](C)O[C@@H](C)C3)nc2CNC(=O)c2cccc3c2OC(F)(F)O3)cc(C)n1 [Compound 46, N-[[2-[(2R,6S)-2,6-dimethyl-4-morpholinyl]-5-(2,6-dimethyl-4-pyridinyl)-4-thiazolyl]methyl]-2,2-difluoro-1,3-benzodioxole-4-carboxamide] | 0.331 µM | 185 °C | 610% | 
14 | Cc1cc(-c2sc(N3C[C@@H](C)O[C@@H](C)C3)nc2CNC(=O)CC2CCC2)cc(C)n1 [Compound 49, N-[[2-[(2R,6S)-2,6-dimethyl-4-morpholinyl]-5-(2,6-dimethyl-4-pyridinyl)-4-thiazolyl]methyl]-cyclobutaneacetamide] | 0.0263 µM | 153 °C |  | 
15 | Cc1cc(-c2sc(N3C[C@@H](C)O[C@@H](C)C3)nc2CNC(=O)CCC2CC2)cc(C)n1 [Compound 50, N-[[2-[(2R,6S)-2,6-dimethyl-4-morpholinyl]-5-(2,6-dimethyl-4-pyridinyl)-4-thiazolyl]methyl]-cyclopropanepropanamide] | 0.0661 µM | 168 °C | 953% | 
16 | Cc1cc(-c2sc(N3CCOCC3)nc2CNC(=O)c2cc(C)on2)cc(C)n1 [Compound 63, N-[[5-(2,6-dimethyl-4-pyridinyl)-2-(4-morpholinyl)-4-thiazolyl]methyl]-5-methyl-3-isoxazolecarboxamide] | 1.82 µM | 197 °C | 969% | 

Results, then the compound that gave them:

Row | EC50 [1] | melting point | Emax [1, 2] | a7-PAM-G_[33]_Eff_Curve_FI % Efficacy [1, 2] | Compound
17 | 0.038 µM | 148 °C |  | 883% | Cc1cc(-c2sc(N3CC(C)OC(C(F)(F)F)C3)nc2CNC(=O)CC2CC2)cc(C)n1 (racemic) [Compound 205, N-[[5-(2,6-dimethyl-4-pyridinyl)-2-[2-methyl-6-(trifluoromethyl)-4-morpholinyl]-4-thiazolyl]methyl]-cyclopropaneacetamide]
18 | 2 µM | 138 °C |  |  | Cc1cc(C(=O)NCc2nc(N3CCOC(C)C3)sc2-c2cc(C)nc(C)c2)on1 (single isomer, unassigned) [Compound 72, N-[[5-(2,6-dimethyl-4-pyridinyl)-2-[(2S*)-2-methyl-4-morpholinyl]-4-thiazolyl]methyl]-3-methyl-5-isoxazolecarboxamide]
19 | 2 µM | 167 °C |  |  | Cc1cc(-c2sc(N3CCOC(C)C3)nc2CNC(=O)c2cc(C)on2)cc(C)n1 (single isomer, unassigned) [Compound 74, N-[[5-(2,6-dimethyl-4-pyridinyl)-2-[(2R*)-2-methyl-4-morpholinyl]-4-thiazolyl]methyl]-5-methyl-3-isoxazolecarboxamide]
20 | 0.107 µM | 188 °C | 809% |  | Cc1cc(-c2sc(N3CCOC(C)C3)nc2CNC(=O)c2ccc(F)cc2C)cc(C)n1 (single isomer, unassigned) [Compound 77, N-[[5-(2,6-dimethyl-4-pyridinyl)-2-[(2R*)-2-methyl-4-morpholinyl]-4-thiazolyl]methyl]-4-fluoro-2-methyl-benzamide]
21 | 1.66 µM | 166 °C |  |  | Cc1cc(-c2sc(N3CCOC(C)C3)nc2CNC(=O)c2cc(C)on2)cc(C)n1 (single isomer, unassigned) [Compound 79, N-[[5-(2,6-dimethyl-4-pyridinyl)-2-[(2S*)-2-methyl-4-morpholinyl)-4-thiazolyl]methyl]-5-methyl-3-isoxazolecarboxamide]
22 | 0.115 µM | 156 °C |  |  | Cc1cc(-c2sc(N3CC(C)OC(C(F)(F)F)C3)nc2CNC(=O)CC2CC2)cc(C)n1 (single isomer, unassigned) [Compound 133, N-[[5-(2,6-dimethyl-4-pyridinyl)-2-[2-methyl-6-(trifluoromethyl)-4-morpholinyl]-4-thiazolyl]methyl]-cyclopropaneacetamide]
23 | 0.0437 µM | 150 °C | 985% |  | Cc1cc(-c2sc(N3CC(C)OC(C(F)(F)F)C3)nc2CNC(=O)CC2CC2)cc(C)n1 (single isomer, unassigned) [Compound 206, N-[[5-(2,6-dimethyl-4-pyridinyl)-2-[2-methyl-6-(trifluoromethyl)-4-morpholinyl]-4-thiazolyl]methyl]-cyclopropaneacetamide]
24 | 0.00724 µM |  |  |  | Cc1cc(-c2sc(N3C[C@@H](C)O[C@@H](C(F)(F)F)C3)nc2CNC(=O)CC2CC2)cc(C)n1 [Compound 203, N-[[5-(2,6-dimethyl-4-pyridinyl)-2-[(2R,6R)-2-methyl-6-(trifluoromethyl)-4-morpholinyl]-4-thiazolyl]methyl]-cyclopropaneacetamide]
25 | 0.0316 µM |  | 392% |  | Cc1cc(-c2sc(N3C[C@@H](C(F)(F)F)O[C@@H](C)C3)nc2CNC(=O)CC2CC2)cc(C)n1 [Compound 204, N-[[5-(2,6-dimethyl-4-pyridinyl)-2-[(2S,6S)-2-methyl-6-(trifluoromethyl)-4-morpholinyl]-4-thiazolyl]methyl]-cyclopropaneacetamide]
